Laboratory results: patent publication US5023275A, “S-substituted beta-thioacrylamide biocides and fungicides” (Rohm and Haas Company, priority 1990, dated 1991)
In brackets after ≈: the same amount, converted by molar mass. Like-named read-outs stand apart in the source and are kept apart here.

Experiments:
[1] = tested on: Pellicularia filamentosa (f. sp. sasiki); conditions: in vivo
[2] = tested on: Pseudoperonospora cubensis; conditions: in vivo
[3] = tested on: Aspergillus niger (A.n); experiment: Alternate Minimum Inhibitory Concentration test, A.n (Table 7); type: cell-based; conditions: TSB, 72 hours, 30° C.
[4] = tested on: Candida albicans (C.alb); experiment: Alternate Minimum Inhibitory Concentration test, C.alb (Table 7); type: cell-based; conditions: TSB, 72 hours, 30° C.
[5] = tested on: Escherichia coli (E.c); experiment: Alternate Minimum Inhibitory Concentration test, E.c (Table 7); type: cell-based; conditions: TSB, 72 hours, 30° C.
[6] = tested on: Puccinia graminis (f. sp. tritici Race 15B-2); type: in vivo; conditions: wheat, two weeks
[7] = tested on: Piricularia oryzae; type: in vivo; conditions: rice, 7 to 8 days after inoculation
[8] = tested on: Pseudomonas fluorescens (Ps.fl); experiment: Alternate Minimum Inhibitory Concentration test, Ps.fl (Table 7); type: cell-based; conditions: TSB, 72 hours, 30° C.
Method: From this solution, 100 μl was transferred to the first row of two microtiter plate columns. […] Inoculation was accomplished by diluting a 24 hr Ps fl culture, four mls per 36 mls of phosphate buffer solution. A Dynatech autoinoculator was used to transfer 1.5 μl of this cell suspension to the microtiter plates.

[9] = tested on: Phytophthora infestans; type: in vivo; conditions: tomato, 4 days after inoculation
[10] = tested on: Pseudomonas aerugenosa (Ps.ae); experiment: Alternate Minimum Inhibitory Concentration test, Ps.ae (Table 7); type: cell-based; conditions: TSB, 72 hours, 30° C.
[11] = tested on: Staphylococcus aureus (S.a); experiment: Alternate Minimum Inhibitory Concentration test, S.a (Table 7); type: cell-based; conditions: TSB, 72 hours, 30° C.
[12] = tested on: Erysiphe graminis (f. sp. tritici); conditions: in vivo
[13] = tested on: Aureobasidium pullulans (A.p); experiment: Alternate Minimum Inhibitory Concentration test, A.p (Table 7); type: cell-based; conditions: TSB, 72 hours, 30° C.
[14] = tested on: Escherichia coli (E.c); experiment: MIC, broth two-fold serial dilution test, E.c (Table 6); type: cell-based; conditions: two-fold serial dilution in broth, 500 to 4 ppm
Text: (§1) A minimum inhibitory concentration (MIC) value is obtained using a broth, two-fold serial dilution test performed as follows: […] A volume of the stock solution is dispensed into culture media to give an initial starting test concentration of 500 ppm compound. When the test is ready to be done, each vessel in the dilution series, except the first vessel, contains an equal volume of compound free broth. The first vessel contains twice the volume of broth with the starting concentration of test compound. One half of the broth from the first vessel is transferred to the second vessel. After being mixed, one half the resulting volume is removed from the second vessel and transferred to the third vessel. […] Each vessel is then inoculated with a cell suspension of the appropriate test organism. Bacteria are grown in broth and fungi on agar […] for a time and at a temperature appropriate to the species being tested. At the end of the growth period, the broth is vortexed to disperse the cells. In the case of fungi, the spores are harvested by pipetting water onto the slant and dislodging the spores with a sterile loop. The cell/spore suspension is standardized by controlling incubation time, temperature, and the volume of the diluent. The suspension is then used to inoculate the vessels containing the broth compound. The vessels are then incubated at the appropriate temperature. […]

[15] = tested on: Pseudomonas fluorescens; experiment: Speed of Kill (SOK) Test, 4 hours (Table 6); type: cell-based; conditions: Ps. fluorescens in synthetic hard water, 30° C., read-out: SOK: concentration at which compound killed >99.999% of the cells
Text: The Speed of Kill (SOK) Test measures the loss of cell viability in an aqueous suspension of bacterial cells during a four hour period when these cells are contacted with a defined concentration of the test compound in synthetic hard water (SHW). A stock solution or dispersion of the test compound, typically at a concentration of 1%, is made in a 5:3:2 solvent solution of acetone, methanol, and water. The SHW is made by taking one liter of sterile deionized water and adding the following solutions to it:
1. 2 ml of a solution of 31.74 g of MgCl2 and 73.99 g of CaCl2 in 1000 ml. of sterile distilled water which has been heat sterilized.
2. 4 ml of a solution of 56.03 g of NaHCO3 in 1000 ml of water which has been filter sterilized.
The combined solution is then filter sterilized to yield the SHW. A volume of the stock solution is dispensed into the SHW to give an initial test compound starting concentration of 500 ppm.
When the test is ready to be run, each vessel in the dilution series, except the first vessel, contains an equal volume of the SHW mixture with the test compound. The first vessel contains twice the volume of SHW with the starting concentration of test compound. One half of the SHW from the first vessel is transferred to the second vessel. After being mixed, one half the resulting volume is removed from the second vessel and transferred to the third vessel. […]

[16] = tested on: Staphylococcus aureus (S.a); experiment: MIC, broth two-fold serial dilution test, S.a (Table 6); type: cell-based; conditions: two-fold serial dilution in broth, 500 to 4 ppm
Text: as §1

[17] = tested on: Pseudomonas fluorescens (Ps.fl); experiment: MIC, broth two-fold serial dilution test, Ps.fl (Table 6); type: cell-based; conditions: two-fold serial dilution in broth, 500 to 4 ppm
Text: as §1

[18] = tested on: Aspergillus niger (A.n); experiment: MIC, broth two-fold serial dilution test, A.n (Table 6); type: cell-based; conditions: two-fold serial dilution in broth, 500 to 4 ppm
Text: as §1

[19] = tested on: Pseudomonas aerugenosa (Ps.ae); experiment: MIC, broth two-fold serial dilution test, Ps.ae (Table 6); type: cell-based; conditions: two-fold serial dilution in broth, 500 to 4 ppm
Text: as §1

[20] = tested on: Aureobasidium pullulans (A.p); experiment: MIC, broth two-fold serial dilution test, A.p (Table 6); type: cell-based; conditions: two-fold serial dilution in broth, 500 to 4 ppm
Text: as §1

[21] = tested on: Puccinia recondita (f. sp. tritici Races PKB and PLD); conditions: in vivo

Structure (SMILES) | % Control RSB [1] | % Control CDM [2] | MIC [3] | MIC [4] | MIC [5] | % Control WSR ([6]; application rate 300 ppm) | MIC [8] | % Control TLB ([9]; application rate 300 ppm) | MIC [10] | MIC [11] | % Control WPM [12] | MIC [13] | % Control RB ([7]; application rate 200 ppm) | % Control RB ([7]; application rate 100 ppm) | % Control TLB ([9]; application rate 100 ppm) | further results
CC(=O)C(S/C=C\C(=O)NCc1ccccc1)C(C)=O [Example 2, N-benzyl-cis-3-thio-(1-acetylpropan-2-on-1-yl)acrylamide] | 0% | 70% | 125 to 500 µg/mL (≈ 429 to 1720 µM) | 31 to 63 µg/mL (≈ 106 to 216 µM) | 63 to 125 µg/mL (≈ 216 to 429 µM) | 40% | > 500 µg/mL | 0% | 500 µg/mL (≈ 1720 µM) | 31 µg/mL (≈ 106 µM) | 0% | 31 µg/mL (≈ 106 µM) |  |  |  | % Control RB ([7]; application rate 300 ppm): 0%
CC(=O)C(S/C(Cl)=C(/C)C(=O)Nc1ccc(Cl)cc1)C(C)=O [Example 1, N-(p-Chlorophenyl)-2-methyl-3-chloro-cis-3-thio-(1-acetylpropan-2-on-1-yl)acrylamide] | 0% | 100% | 4 to 8 µg/mL (≈ 11.1 to 22.2 µM) | < 4 µg/mL | < 4 µg/mL | 70% | 4 to 16 µg/mL (≈ 11.1 to 44.4 µM) | 90% | 8 µg/mL (≈ 22.2 µM) | < 4 µg/mL | 0% | < 4 µg/mL | 80% |  |  | MIC [14]: < 4 µg/mL; MBC [15]: 32 µg/mL (≈ 88.8 µM); MIC [16]: < 4 µg/mL; MIC [17]: < 4 µg/mL; MIC [18]: < 4 µg/mL; MIC [19]: < 4 µg/mL; MIC [20]: < 4 µg/mL
CC(=O)C(S/C(Cl)=C\C(=O)Nc1ccc(Cl)cc1)C(C)=O [Example 6, N-(p-chlorophenyl)-3-chloro-cis-3-thio-(1-acetylpropan-2-on-1-yl)acrylamide] | 0% | 85% | > 500 µg/mL |  |  |  | > 500 µg/mL |  |  |  | 0% |  |  | 50% | 0% | % Control WLR [21]: 50%
CC(=O)C(S/C=C\C(=O)NCCc1ccccc1)C(C)=O [Example 3, N-(beta-phenethyl)-cis-3-thio-(1-acetylpropan-2-on-1-yl)-acrylamide] | 0% | 90% | 63 to 500 µg/mL (≈ 206 to 1640 µM) | 31 µg/mL (≈ 102 µM) | 250 µg/mL (≈ 819 µM) | 40% | > 500 µg/mL | 20% | > 500 µg/mL | 63 µg/mL (≈ 206 µM) | 0% | 8 to 16 µg/mL (≈ 26.2 to 52.4 µM) | 94% |  |  | 
CC(=O)C(S/C=C\C(=O)NCc1ccc(Cl)cc1)C(C)=O [Example 4, N-(p-chlorobenzyl)-cis-3-thio-(1-acetylpropan-2-on-1-yl)-acrylamide] | 0% | 95% | 31 to 500 µg/mL (≈ 95.1 to 1530 µM) | 63 µg/mL (≈ 193 µM) | 63 µg/mL (≈ 193 µM) | 30% | > 500 µg/mL | 15% | > 500 µg/mL | 31 µg/mL (≈ 95.1 µM) | 0% | 16 µg/mL (≈ 49.1 µM) | 89% |  |  | 
CC(=O)C(S/C(Cl)=C(/C)C(=O)Nc1ccccc1)C(C)=O [Example 5, N-phenyl-2-methyl-3-chloro-cis-3-thio-(1-acetylpropan-2-on-1-yl)acrylamide] |  | 49% | < 4 µg/mL | 16 µg/mL (≈ 49.1 µM) | < 4 µg/mL |  | 16 µg/mL (≈ 49.1 µM) |  | 16 to 31 µg/mL (≈ 49.1 to 95.1 µM) | 8 µg/mL (≈ 24.6 µM) | 0% | 16 µg/mL (≈ 49.1 µM) |  | 50% | 35% | MIC [14]: < 4 µg/mL; % Control WSR ([6]; application rate 100 ppm): 50%; MBC [15]: < 4 µg/mL; MIC [16]: < 4 µg/mL; MIC [17]: < 4 µg/mL; MIC [18]: < 4 µg/mL; MIC [19]: 8 µg/mL (≈ 24.6 µM); MIC [20]: 32 µg/mL (≈ 98.2 µM)
CC(=O)C(S/C=C(/C)C(=O)Nc1ccc(Cl)cc1)C(C)=O [Example 7, N-(p-chlorophenyl)-2-methyl-cis-3-thio-(1-acetylpropan-2-on-1-yl)acrylamide] | 0% | 0% | 31 to 63 µg/mL (≈ 95.1 to 193 µM) | 16 µg/mL (≈ 49.1 µM) | 63 to 125 µg/mL (≈ 193 to 384 µM) |  | > 500 µg/mL |  | > 500 µg/mL | 125 µg/mL (≈ 384 µM) | 60% | 4 to 8 µg/mL (≈ 12.3 to 24.6 µM) |  | 50% | 0% | % Control WLR [21]: 50%
